Laboratory results from ChEMBL document CHEMBL3580650, “Synthesis and Initial in Vivo Studies with [(11)C]SB-216763: The First Radiolabeled Brain Penetrative Inhibitor of GSK-3” (ACS Med Chem Lett, 2015).

Tests used:
[1] = Drug uptake in thalamus of rhesus monkey brain at 89 +/- 3 MBq, iv administered as bolus dose for 1 min measured over 90 mins post injection by MicroPET image analysis; assay type: ADME, organism-based, Macaca mulatta; conditions: in vivo
[2] = test system: Striatum; test: Drug uptake in striatum of rhesus monkey brain at 89 +/- 3 MBq, iv administered as bolus dose for 1 min measured over 90 mins post injection by MicroPET image analysis; assay type: ADME, organism-based, Macaca mulatta; conditions: in vivo
[3] = test system: Cerebellum; test: Drug uptake in cerebellum of Wistar rat brain at 48.8 MBq, iv administered as bolus dose for 30 secs measured over 120 mins post injection by MicroPET image analysis; assay type: ADME, organism-based; conditions: in vivo
[4] = test system: Thalamus; test: Drug uptake in thalamus of Wistar rat brain at 48.8 MBq, iv administered as bolus dose for 30 secs measured over 120 mins post injection by MicroPET image analysis; assay type: ADME, organism-based; conditions: in vivo
[5] = test system: Brain; test: Drug uptake in brain of Wistar rat at 48.8 MBq, iv administered as bolus dose for 30 secs measured at 3 mins post wash out by MicroPET image analysis; assay type: ADME, organism-based; conditions: in vivo, 0.05 h
[6] = test system: Striatum; test: Drug uptake in striatum of Wistar rat brain at 48.8 MBq, iv administered as bolus dose for 30 secs measured over 120 mins post injection by MicroPET image analysis; assay type: ADME, organism-based; conditions: in vivo
[7] = test system: Brain; test: Drug uptake in brain of rhesus monkey at 89 +/- 3 MBq, iv administered as bolus dose for 1 min measured at 5 mins post wash out by MicroPET image analysis; assay type: ADME, organism-based, Macaca mulatta; conditions: in vivo
[8] = Drug uptake in cortex of rhesus monkey brain at 89 +/- 3 MBq, iv administered as bolus dose for 1 min measured over 90 mins post injection by MicroPET image analysis; assay type: ADME, organism-based, Macaca mulatta; conditions: in vivo
[9] = test system: Cortex; test: Drug uptake in cortex of Wistar rat brain at 48.8 MBq, iv administered as bolus dose for 30 secs measured over 120 mins post injection by MicroPET image analysis; assay type: ADME, organism-based; conditions: in vivo
[10] = Drug uptake in cerebellum of rhesus monkey brain at 89 +/- 3 MBq, iv administered as bolus dose for 1 min measured over 90 mins post injection by MicroPET image analysis; assay type: ADME, organism-based, Macaca mulatta; conditions: in vivo

## [11CH3]n1cc(C2=C(c3ccc(Cl)cc3Cl)C(=O)NC2=O)c2ccccc21
[1]
  Drug uptake: Active
[2]
  Drug uptake: Active
[3]
  Drug uptake: Active
[4]
  Drug uptake: Active
[5]
  SUV: 2.5
[6]
  Drug uptake: Active
[7]
  SUV: 1.9
[8]
  Drug uptake: Active
[9]
  Drug uptake: Active
[10]
  Drug uptake: Active
